Measurements as given in PubChem BioAssay (NCI).
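Protocol summary: plate cells (96-well), add compound at 5 concentrations, incubate 48 h, interpolate endpoints linearly. Abbreviation: GI50, concentration required for 50% inhibition of growth. The concentration for full growth arrest is given as TGI.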

Assays:
Experiment in all cases: DTP human tumour cell line panel, 48 h
[1] = tested on: HOP-62 NSCLC
[2] = tested on: SK-MEL-2 melanoma
[3] = tested on: SK-MEL-28 melanoma
[4] = tested on: DMS 273 small cell lung
[5] = tested on: LOX IMVI melanoma
[6] = tested on: NCI-H23 lung
[7] = tested on: DLD-1 colon
[8] = tested on: SN12C renal
[9] = tested on: MDA-MB-435
[10] = tested on: DU-145 prostate

SMILES	TGI [1]	TGI [2]	TGI [3]	TGI [4]	TGI [5]	TGI [6]	TGI [7]	TGI [8]	GI50 [1]	GI50 [2]	GI50 [3]	GI50 [4]	GI50 [5]	GI50 [6]	GI50 [7]	GI50 [8]	TGI [9]	TGI [10]
COC(=O)C12C3C4C5(C(=O)OC)C(C1C35C(=O)N(C(C)C)C(C)C)C42C(=O)N(C(C)C)C(C)C (stereo not drawn)	> 50 µM	> 50 µM	> 50 µM	> 50 µM	> 43.6 µM	> 50 µM	> 38.4 µM	> 50 µM										
O=C(/C=C/c1c(O)ccc2ccccc12)c1ccc2ccccc2c1	> 100 µM	> 100 µM	> 100 µM	> 100 µM	> 100 µM	> 100 µM	> 100 µM	> 100 µM										
O=C(CCC(=O)Nc1cccc(Cl)c1)CC(=O)c1ccc(Cl)cc1	> 100 µM	> 100 µM	> 100 µM	> 100 µM	> 100 µM	> 100 µM		> 100 µM										
N#C/C(=C\c1ccc(O)c(O)c1)C(N)=O	> 100 µM	> 100 µM	> 100 µM	> 100 µM		93.8 µM	> 100 µM	> 100 µM										
CC1=C(C(=O)Nc2c(C)cccc2C)C(c2ccccc2Cl)C(C(=O)Nc2c(C)cccc2C)=C(C)N1	> 100 µM	> 100 µM	> 100 µM	> 100 µM	> 100 µM	> 100 µM	> 100 µM	> 100 µM										
N#CC(/C(=N/NC(=O)C(=O)NN)C(=O)NC12CC3CC(CC(C3)C1)C2)c1ccccc1 (stereo not drawn)	> 100 µM	> 100 µM	> 100 µM	> 100 µM	> 100 µM	> 100 µM	> 100 µM	> 100 µM										
CC(C)(C)N1CC2(CCCCC2)C1=O	> 100 µM	> 100 µM	> 100 µM	> 100 µM	> 100 µM	> 100 µM	> 100 µM	> 100 µM										
COc1ccc(C(=O)C(CO)Oc2ccccc2OC)cc1OC (stereo not drawn)	> 100 µM	> 100 µM	> 100 µM	> 100 µM	> 100 µM	> 100 µM	> 100 µM	> 100 µM										
CC(=O)OCC1OC([S-])C(OC(C)=O)C(OC(C)=O)C1OC(C)=O.CC[PH+](CC)CC.CC[PH+](CC)CC.[Au].[Au] (stereo not drawn)	2.56 µM	0.49 µM	0.791 µM	2.11 µM	0.317 µM	1.07 µM	0.49 µM	1.78 µM	1230 nM	187 nM	167 nM	453 nM	142 nM	245 nM	174 nM	567 nM		
CN=NN(C)C(=O)NC	> 100 µM	> 100 µM	> 100 µM		> 100 µM	> 100 µM	> 100 µM	> 100 µM										
O=C(/C=C/c1ccccc1)/C=C/c1ccccc1	> 100 µM	> 100 µM	42.9 µM	> 100 µM	31.7 µM	82.4 µM	32.5 µM	42.1 µM										
N#CC1(C2SCCS2=O)C2=C(C(=O)c3ccccc3C2=O)N2CCCC21 (stereo not drawn)	14.9 µM	4.12 µM	7.8 µM	12.2 µM	6.53 µM	3.51 µM	14.1 µM	6.71 µM									1300 nM	4.93 µM
N#CC(C#N)=c1[nH]c2cccc3c2-c2c(cccc2c3=C(C#N)C#N)[nH]1	> 100 µM			> 100 µM	> 100 µM	> 100 µM	> 100 µM	> 100 µM										
O=C1CSC(Cc2nc3ccccc3[nH]2)=N1	44.1 µM	38.4 µM	> 76.1 µM	35.4 µM	37.3 µM	43.8 µM	49 µM	44.8 µM										
COc1ccccc1NC(=O)C1=C(C)NC(C)=C(C(=O)Nc2ccccc2OC)C1c1ccc([N+](=O)[O-])cc1	> 100 µM	> 100 µM	> 100 µM	> 100 µM	> 100 µM	> 100 µM	> 100 µM	> 100 µM										
O=S(O)CCCCSSCc1ccccc1CSSCCCCS(=O)O	> 100 µM	> 100 µM	31.9 µM	> 100 µM	28.7 µM	61.8 µM	> 100 µM	> 100 µM										
